The results in this text go back to patent US12390508B2, “Brain natriuretic peptide engrafted antibodies” (Boehringer Ingelheim International GmbH, priority 2018, dated 2025).

Data set [1] concerns the target T1, insulin degrading enzyme (IDE) (Rattus norvegicus, UniProt P35559).
T1 sequence (P35559 42-1019 limits assumed): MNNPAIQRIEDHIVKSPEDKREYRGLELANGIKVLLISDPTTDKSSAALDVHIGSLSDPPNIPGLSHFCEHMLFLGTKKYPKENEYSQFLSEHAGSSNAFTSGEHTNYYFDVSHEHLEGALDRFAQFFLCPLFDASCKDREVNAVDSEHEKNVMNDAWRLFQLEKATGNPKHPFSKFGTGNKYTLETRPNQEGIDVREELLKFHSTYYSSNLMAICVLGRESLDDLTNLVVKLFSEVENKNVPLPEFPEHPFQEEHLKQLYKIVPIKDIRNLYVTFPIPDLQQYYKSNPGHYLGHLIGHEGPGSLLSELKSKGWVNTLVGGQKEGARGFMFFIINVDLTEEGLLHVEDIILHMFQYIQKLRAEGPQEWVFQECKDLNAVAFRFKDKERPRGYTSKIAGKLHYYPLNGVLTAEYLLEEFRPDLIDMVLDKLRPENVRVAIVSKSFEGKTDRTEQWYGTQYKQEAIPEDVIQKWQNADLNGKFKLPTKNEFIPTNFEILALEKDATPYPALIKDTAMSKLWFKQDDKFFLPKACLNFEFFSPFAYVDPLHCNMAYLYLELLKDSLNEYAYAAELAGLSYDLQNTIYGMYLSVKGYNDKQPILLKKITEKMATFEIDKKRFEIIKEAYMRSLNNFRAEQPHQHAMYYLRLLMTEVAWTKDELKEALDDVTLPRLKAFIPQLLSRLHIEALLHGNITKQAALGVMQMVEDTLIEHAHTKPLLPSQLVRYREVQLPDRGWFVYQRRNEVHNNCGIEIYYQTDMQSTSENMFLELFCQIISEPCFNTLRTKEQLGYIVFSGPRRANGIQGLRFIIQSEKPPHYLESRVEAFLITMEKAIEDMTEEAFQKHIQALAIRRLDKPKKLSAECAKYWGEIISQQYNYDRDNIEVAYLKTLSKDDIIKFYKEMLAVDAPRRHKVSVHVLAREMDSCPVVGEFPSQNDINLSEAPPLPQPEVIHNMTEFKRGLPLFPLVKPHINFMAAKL
The data set is described as follows: Sensitivity towards proteolytic degradation by insulin degrading enzyme (IDE). Conditions: 4 hours incubation with 0.6 μg/ml IDE at 37° C., then activity on the rat receptor cell line.

Data set [2] deals with T2, neutral endopeptidase (NEP) (Homo sapiens, UniProt P08473).
T2 construct: purchased R&D Systems 1182-ZNC
The data set is described as follows: Sensitivity towards proteolytic degradation by neutral endopeptidase (NEP). The class given is in vitro ADME. Conditions: 4 hours incubation with 0.6 μg/ml NEP at 37° C., then activity on the rat receptor cell line.

Positions of bridges follow the written chain, without caps; N, C: chain ends. Residues, ends and D or L forms follow the SMILES beside them.

T2 sequence (P08473 52-750 limits assumed): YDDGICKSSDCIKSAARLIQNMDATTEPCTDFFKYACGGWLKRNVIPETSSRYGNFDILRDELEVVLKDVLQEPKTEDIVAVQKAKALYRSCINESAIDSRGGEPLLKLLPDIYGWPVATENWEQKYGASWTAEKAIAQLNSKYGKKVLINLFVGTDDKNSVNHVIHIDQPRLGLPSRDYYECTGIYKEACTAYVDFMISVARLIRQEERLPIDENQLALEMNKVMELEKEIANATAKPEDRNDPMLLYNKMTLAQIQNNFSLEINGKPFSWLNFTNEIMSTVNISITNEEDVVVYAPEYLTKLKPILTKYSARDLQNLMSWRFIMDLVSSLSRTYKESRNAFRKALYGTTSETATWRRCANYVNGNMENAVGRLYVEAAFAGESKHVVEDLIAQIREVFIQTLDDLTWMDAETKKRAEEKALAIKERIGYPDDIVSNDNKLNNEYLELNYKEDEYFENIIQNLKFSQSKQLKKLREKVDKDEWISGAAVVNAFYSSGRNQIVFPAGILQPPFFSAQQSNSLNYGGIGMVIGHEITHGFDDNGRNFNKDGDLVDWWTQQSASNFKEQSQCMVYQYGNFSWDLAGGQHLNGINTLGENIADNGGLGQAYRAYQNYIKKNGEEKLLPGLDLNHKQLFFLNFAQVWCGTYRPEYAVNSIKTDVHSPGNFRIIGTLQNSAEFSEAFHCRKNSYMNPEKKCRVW

On to `CC[C@H](C)[C@@H]1NC(=O)[C@H](CCCNC(=N)N)NC(=O)[C@H](CC(=O)O)NC(=O)[C@H]([C@@H](C)CC)NC(=O)[C@H](CCCCN)NC(=O)[C@H](CCC(N)=O)NC(=O)CNC(=O)[C@H](Cc2ccccc2)NC(=O)[C@@H](NC(=O)[C@H](CO)NC(=O)[C@H](CO)NC(=O)[C@H](CO)NC(=O)[C@H](Cc2c[nH]cn2)NC(=O)[C@H](C)NC(=O)[C@H](CCSC)NC(=O)[C@H](CCCCN)NC(=O)[C@H](CO)NC(=O)[C@@H](N)CC(N)=O)CSSC[C@@H](C(=O)N[C@@H](CC(=O)O)C(=O)NCC(=O)N[C@@H](CC(C)C)C(=O)N[C@@H](CCCNC(=N)N)C(=O)N[C@@H](CC(C)C)C(=O)N[C@@H](Cc2ccccc2)C(=O)O)NC(=O)CNC(=O)[C@H](CC(C)C)NC(=O)[C@H](CCCNC(=N)N)NC(=O)[C@H](CO)NC(=O)[C@H](C(C)C)NC(=O)[C@H](C)NC(=O)CNC1=O` [BNP, reference compound] (H-NSKMAHSSSCFGQKIDRIGAVSRLGCDGLRLF-OH; disulfide 10-26; N-terminus and C-terminus assumed), for which, in data set [1], the “sensitivity towards proteolytic degradation by IDE” value was “high sensitivity”. In addition, the “sensitivity towards proteolytic degradation by NEP” value in data set [2] is listed as “high sensitivity”.
